Here are results for 1 compound from patent publication US20240108737A1, “ANTI-INFECTIVE BICYCLIC PEPTIDE LIGANDS” (priority 2021, published 2024).

*1 amine or outer side, *2 acyl side, *3 side chain or, on linkers, in order; H or OH if unused. Where a SMILES comes first, the peptide text is derived from it. Bridges are numbered along the chain shown (N, C = ends). Roman numbers before positions name the chains, in order. [ ]: non-standard residue; d: D form. X1 = O=C(CCOCCOCCOCCOCCOCCOCCOCCOCCOCCOCCOCCOCCOCCOCCOCCOCCOCCOCCOCCOCCOCCOCCOCCOCCn1cc(CCC(=O)[*:2])nn1)[*:1]; TATB = O=C(C[*:1])N1CN(C(=O)C[*:2])CN(C(=O)C[*:3])C1; X2 = C(c1nc(C[*:2])nc(C[*:3])n1)[*:1]; hArg = N=C(N)NCCCC[C@H](N)C(=O)O; tBuAla = CC(C)(C)C[C@H](N)C(=O)O

In the experiment the test system is SARS-CoV-2 pseudotyped HIV-1 virions, D614G.

For `CC(=O)N[C@H]1CSCC(=O)N2CN3CN(C2)C(=O)CSC[C@H](NC(=O)[C@H](C(C)C)NC(=O)[C@@H]2CCCN2C(=O)[C@H](CC(N)=O)NC(=O)[C@H](CC(=O)O)NC(=O)[C@@H]2CCCN2C(=O)[C@H](CC(N)=O)NC(=O)[C@H](C)NC1=O)C(=O)N[C@@H](CCCNC(=N)N)C(=O)N[C@@H](Cc1ccccc1)C(=O)N[C@@H](Cc1ccc(O)cc1)C(=O)N[C@H](C(=O)N[C@@H](CCCCNC(=O)CCOCCOCCOCCOCCOCCOCCOCCOCCOCCOCCOCCOCCOCCOCCOCCOCCOCCOCCOCCOCCOCCOCCOCCOCCn1cc(CCC(=O)NCCCC[C@H](NC(=O)[C@@H]2CSCc4nc5nc(n4)CSC[C@H](NC(C)=O)C(=O)N4CCC[C@H]4C(=O)N[C@@H](Cc4ccc(O)cc4)C(=O)N[C@@H](C(C)C)C(=O)N[C@@H](C)C(=O)NCC(=O)N[C@@H](CCCCNC(=N)N)C(=O)N[C@H](C)C(=O)N[C@@H]([C@@H](C)O)C(=O)N[C@@H](CSC5)C(=O)N[C@@H](CC(C)C)C(=O)N[C@@H](CC(C)(C)C)C(=O)N2)C(N)=O)nn1)C(N)=O)CSCC3=O` [BCY18786] (I: Ac-CANPDNPVCRFYCK-NH2 / II: Ac-CPYVAG[hArg][dA]TCL[tBuAla]CK-NH2; linker I:1-I:9-I:13 via TATB; linker I:14-II:14 via X1; linker II:1-II:10-II:13 via X2), the IC50 (commonly the concentration that gives 50% inhibition) was 20 nM.
